Reference: patent US11414454B2, “Compositions, methods, and systems for affinity-based protein identification and purification” (Auctus Biologies, Inc., priority 2017, dated 2022)
Values joined by “and” are separate entries in the source; they are usually repeats but may differ in a detail not shown here. Identical values can stand only once. Like-named read-outs stand apart in the source and are kept apart here.

Experiments:
RPtag (large) resin = test: Affinity-based precipitation/pull-down with RPtag (large) resin; type: binding, Thermoanaerobacter tengcongensis; details: negative control peptide
Protocol: The disclosed proteins and peptides were used in precipitation/pull-down assays. Specifically, rhodamine was tagged with the RPtag(small) Nd8Cd4 peptide and RPtag(large) was immobilized on a resin, as described above.
Briefly, 100 μL 1000 nM rhodamine labeled RPtag(small) peptide was incubated with 2.5 uL wet settled RPtag (large) resin generated as (as described above) in phosphate buffered saline (PBS; Gibco)+1% BSA+0.005% Tween 20 at 4° C. for 60 min with continuous orbital shaking. Samples were then washed 3× with 500 μL of the same buffer with no peptide to remove unbound peptide. Bound RPtag(small) peptides were then eluted with 100 μL 100 mM glycine pH 1.5+0.005% Tween20, and the pH raised by adding 1 μL 1 M borate pH 10.0. The amount eluted was calculated from the blank subtracted fluorescence of the elution versus the load. After each elution, resin was washed once with 500 μL 6M GdnHCl and once with 500 μL phosphate buffered saline (Gibco)+1% BSA+0.005% Tween 20, before repeating the assay.
Sequential precipitation/pulldown trials were performed with the rhodamine labelled RPtag(small) Nd8Cd4 peptide, and the RPtag(large)-resin. After binding and pull-down, the rhodamine-peptide was eluted in 100 mM glycine pH 1.5, the column was washed with water and 6 M guanidine hydrochloride, and then re-equilibrated with buffer (50 mM Tris pH 8.0, 10 mM EDTA). […]

RPtag (large) [1] = test: Fluorescence anisotropy Kd of rhodamine labeled RPtag (small) peptides for RPtag (large); type: binding, Thermoanaerobacter tengcongensis
Protocol: (§1) 50 nM of RP-Tag Small (see Sequence 3, below) with an N-terminal Rhodamine B label was incubated with increasing concentrations of either RP-Tag Large (see Sequence 2) or Bovine Serum Albumin (BSA) in 50 mM Tris pH 8.0, 150 mM NaCl, 10 mM 2-mercaptoethanol, and 0.005% Tween 20 for 5 min in black 96-well plates at room temperature.
(§2) Anisotropy was then measured, and a Kd calculated by fitting the data to the equation f=y0+(ymax−y0)*(Ptot+x+Kd−sqrt((Ptot+x+Kd)^2−4*Ptot*x))/(2*Ptot), where y0 is the baseline anisotropy, ymax is the maximum anisotropy, Ptot is the fixed concentration of labeled peptide used, x is the variable concentration of protein used, and Kd is the measured Kd.
(§3) The indicated concentrations of RPtag (large) and an anti-His tag antibody (4E3D10H2/E3 purchased from ThermoFisher Scientific) were incubated with 1 nM rhodamine labeled native RPtag (small) peptide and 6×His peptide (Rhodamine-GHHHHHH), respectively, and fluorescence anisotropy measured. BSA incubated with native rhodamine labeled RPtag(small) is included as a control for non-specific binding. Kd's were calculated according to the equation f=y0+(ymax−y0)*(Ptot+x+Kd−sqrt((Ptot+x+Kd)^2−4*Ptot*x))/(2*Ptot), where y0 is the baseline anisotropy, ymax is the maximum anisotropy, Ptot is the fixed concentration of labeled peptide used, x is the variable concentration of protein used, and Kd is the measured Kd. We measured a Kd of 0.2±0.1 nM for RPtag(large) binding RPtag(small), and a Kd of 6±1 nM for the antibody/6×His tag pair.
Regarding the studies shown in FIG. 14, increasing concentrations of unlabeled RPtag large with the indicated mutations (native, f137d, and f137e) were incubated for 1 h with 1 nM rhodamine labeled RPtag small peptide and the fluorescence anisotropy was measured. Resultant curves were fit with the equation f=y0+(ymax−y0)*(Ptot+x+Kd−sqrt((Ptot+x+Kd)^2−4*Ptot*x))/(2*Ptot), where y0 is the baseline anisotropy, ymax is the maximum anisotropy, Ptot is the fixed concentration of labeled peptide used, x is the variable concentration of protein used, and Kd is the measured Kd. Data are presented here as Ka=1/Kd. Log transformed Ka's were then compared by one-way ANOVA with Holm-Sidak post hoc correction. ***p<0.001, **p<0.01, *p<0.05. data are mean±SEM (n=3-4). Buffer was 50 mM Tris pH 8.0, 0.005% tween20. Proteins were expressed and purified by single step NiNTA chromatography as before. Peptides were synthesized solid-state and handled as previous.

F137D RPtag(large) = test: Compensatory mutation binding study by fluorescence anisotropy; set-up: species or system Thermoanaerobacter tengcongensis; details: 1 nM rhodamine labeled peptide
Description: The possibility of creating compensatory mutations in the two sequences was investigated by modifying position 14 of RPtag(small) and position 137 of RPtag(large). First, a positively charged lysine (K) was introduced at position L14 of RPtag(small) (FIG. 14). […] Next, position F137 of RPtag(large) was mutated to aspartic acid (D), which is a negatively charged residue under physiologic conditions. This substitution was introduced into RPtag(large) to balance the charge with the L14K substitution, and help restore interaction between the two residues. […] In other embodiments, different compensatory mutations may be introduced at F137 and L14, as well as other positions in the two RPtag proteins.
Regarding the studies shown in FIG. 14, increasing concentrations of unlabeled RPtag large with the indicated mutations (native, f137d, and f137e) were incubated for 1 h with 1 nM rhodamine labeled RPtag small peptide and the fluorescence anisotropy was measured. Resultant curves were fit with the equation f=y0+(ymax−y0)*(Ptot+x+Kd−sqrt((Ptot+x+Kd)^2−4*Ptot*x))/(2*Ptot), where y0 is the baseline anisotropy, ymax is the maximum anisotropy, Ptot is the fixed concentration of labeled peptide used, x is the variable concentration of protein used, and Kd is the measured Kd. Data are presented here as Ka=1/Kd. […]

RPtag(large) = test: pH profile of Kd by fluorescence anisotropy; type: binding, Thermoanaerobacter tengcongensis; details: buffers pH 1.5 to 13
Protocol: The Kds of Nd8,Cd4 for RPtag(large) was measured in the presence of buffers of different pHs ranging from 1.5 to 13.
For these experiments, Kds were measured by fluorescence anisotropy as described above in the following buffers, all at 100 mM with 0.005% Tween 20: glycine pH 1.5, glycine pH 2.0, glycine pH 3.0, acetate pH 4.5, 2-(N-morpholino)ethanesulfonic acid pH 6.0, tris pH 7.0, tris pH 7.5, tris pH 8.0, tris pH 8.5, borate pH 10.0, phosphate pH 11.5, phosphate pH 13.0.

[2] = tested on: Bovine Serum Albumin (BSA); type: binding
Protocol: as §1, §2, §3

[3] = biological target: Bovine Serum Albumin (BSA) (Bos taurus, UniProt P02769); type: binding; details: fluorescence anisotropy, rhodamine labeled peptide, up to 10 μM BSA
Protocol: as §1, §2, §3

[4] = tested on: immobilized RPtag(large) column; test: Native elution from immobilized RPtag(large) column (3 M NaCl binding, 3 M imidazole elution); set-up: species or system Thermoanaerobacter tengcongensis; details: bound in 100 mM Tris pH 8.0, 3 M NaCl, 0.005% Tween20
Description: Because of the observed stabilizing character of NaCl and destabilizing character of imidazole on Nd8Cd4 binding, these reagents, among others, were incorporated into a novel buffering system for use with the disclosed proteins, peptides, systems, and methods. In particular, the effect of this novel buffer on binding of RPtag (small) Nd8Cd4 to an immobilized RPtag(large) column was studied. These experiments included eluting both (1) rhodamine labeled peptide and (2) N-terminally RPtag(small) Nd8Cd4 tagged with tagRFP from a column under native conditions. Generally, native conditions is taken to mean at or near biological conditions under which many proteins are folded, e.g. pH 4-9 at moderate temperature (4° C.-30° C.) in the absence of denaturants (e.g. guanidine hydrochloride, urea, SDS). This is in contrast to denaturing conditions, which generally rely on extreme pH (e.g. ≤2) denaturants, or high temperature to unfold proteins.
Briefly, columns, as described above, were first equilibrated with 10 mL 100 mM Tris pH 8.0, 3 M NaCl, 0.005% Tween20. Next, 1 mL of 10 uM rhodamine-tagged Nd8Cd4 or tagRFP containing an N-terminal RPtag (small) Nd8Cd4 tag was applied in the same buffer. The column was then washed with 10 mL of the same buffer. Finally, bound target molecules were eluted with 10 mL of 100 mM Tris pH 8.0, 3 M imidazole, 0.005% Tween20.

RPtag (large) [5] = test: Association/dissociation kinetics of RPtag (small) peptides with RPtag (large) by fluorescence anisotropy; type: binding, Thermoanaerobacter tengcongensis
Protocol: Panel a depicts representative association rate kinetics traces varying native RPtag small. Rhodamine labeled RPtag small at the indicated concentration was incubated with unlabeled RPtag large and the association measured by fluorescence anisotropy. L-S complex concentration was calculated by the equation (r−rmin)/(rmax−rmin)*[S] where r is the measured anisotropy, rmin is the anisotropy in the absence of any RPtag large, rmax is the anisotropy measured in the presence of at saturating RPtag large, and [S] is the total concentration of RPtag small used in the experiment. […] Dashed cyan lines are simulations of the mechanism shown in f using the rate constants detailed herein. The concentrations in the simulations were multiplied by a correction factor of 0.925, which is well within the 90% purity specification of the purchased peptide.
LS complex was performed by incubating 1000 nM RPtag large with the indicated concentrations of rhodamine labeled RPtag small. At the start of the experiment, 0.1 mM unlabeled native RPtag small was added and fluorescence anisotropy monitored. Data processing was done as in panel a, except the red fits were to the single exponential decay equation y=y0+A*exp(−b*t). As expected, the initial dissociation rates were linear with respect to the LS complex.
Fitting to a line yields a rate constant (koff)=0.0091 min^−1 (FIG. 9 panel e). In good agreement, when the kinetics are fit with a first order rate law, a rate constant of 0.012±0.002 min^−1 (n=15) was observed. […] Panel e is a graph of the initial rates of the traces represented in d. Slope of the fit line is 0.0091 min^−1. Data are mean±SE (n=3).
The library of mutant RPtag(small) peptides, described above, was next analyzed to measure off rates (koff). The on rate was also calculated from measured koff and Kd (S*-LS transition), except instead of using unlabeled native peptide as the competitor, we used unlabeled Nd2,P5A,E18A (the tightest binding RPtag(small) peptide identified). […] However, there were notable exceptions. […] This indicates, without wishing to be limited, that P5 may constrain the structure of the peptide. The increased flexibility imparted to the peptide by the P5A mutation may decrease the energy barrier required for binding/unbinding.

RPtag (large) [6] = test: Buffer additive screen, Kd by fluorescence anisotropy; type: binding, Thermoanaerobacter tengcongensis
Protocol: To determine reagent compatibility with the disclosed system, an additive screen was performed, wherein the Kd between RPtag (large) and 3 RPtag (small) peptides—native, Nd8Cd4, and Nd2p5ae18a—were tested in the presence of several common buffer additives (Table 3).

Chain of RPtag (large) (as listed by the source): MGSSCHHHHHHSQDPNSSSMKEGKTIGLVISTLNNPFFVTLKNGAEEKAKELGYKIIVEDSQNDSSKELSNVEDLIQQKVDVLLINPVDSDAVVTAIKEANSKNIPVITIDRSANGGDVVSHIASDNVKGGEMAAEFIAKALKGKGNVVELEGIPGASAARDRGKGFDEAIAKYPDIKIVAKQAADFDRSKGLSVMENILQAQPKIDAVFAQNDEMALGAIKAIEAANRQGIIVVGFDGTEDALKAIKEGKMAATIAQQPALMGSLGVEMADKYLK
Chain of Bovine Serum Albumin (BSA) (Bos taurus, UniProt P02769) (P02769 25-607): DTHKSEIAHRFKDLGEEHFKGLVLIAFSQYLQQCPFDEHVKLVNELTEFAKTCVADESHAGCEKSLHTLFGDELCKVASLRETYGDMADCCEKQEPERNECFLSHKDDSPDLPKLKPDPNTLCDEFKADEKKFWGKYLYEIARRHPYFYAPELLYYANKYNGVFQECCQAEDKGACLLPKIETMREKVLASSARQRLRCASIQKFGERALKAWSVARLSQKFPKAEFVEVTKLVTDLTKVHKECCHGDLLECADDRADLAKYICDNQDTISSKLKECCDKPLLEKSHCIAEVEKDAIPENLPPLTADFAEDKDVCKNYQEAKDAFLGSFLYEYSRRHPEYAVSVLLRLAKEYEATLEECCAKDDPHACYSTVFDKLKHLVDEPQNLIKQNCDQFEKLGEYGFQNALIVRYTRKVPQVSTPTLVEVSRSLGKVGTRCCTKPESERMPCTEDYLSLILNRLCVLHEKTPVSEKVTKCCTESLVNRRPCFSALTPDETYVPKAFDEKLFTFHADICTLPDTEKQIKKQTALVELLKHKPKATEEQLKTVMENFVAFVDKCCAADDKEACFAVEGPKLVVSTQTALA
Chain of RPtag(large) (as listed by the source): as the sequence (as listed by the source) above
Chain of immobilized RPtag(large) column (as listed by the source): as above
Chain of RPtag (large) resin (as listed by the source): as above
Chain of F137D RPtag(large) (as listed by the source, stated change not applied): as the sequence (as listed by the source) above, with F137D counted along it

## GEKIPNFIP [Cd12]
RPtag (large) resin
  binding in pulldown: no binding
RPtag (large) [1]; N-terminal rhodamine tagged peptide, unlabeled RPtag (large), 50 mM Tris pH 8.0, 0.005% Tween 20, mean ± SE
  Kd: > 100 µM

## GEKIPNFIPAELKKITKENVQ [l14k]
F137D RPtag(large)
  binding affinity for F137D RPtag(large): substantially restored the binding affinity
RPtag (large) [1]; 1 nM rhodamine labeled peptide, 50 mM Tris pH 8.0, 0.005% tween20
  binding to native RPtag(large): significantly impaired binding

## GEKIPNFIPAELKLITKENVQ [native]
RPtag(large)
  pH of relative maximum affinity: ~8 pH
RPtag (large) [1]; Example 6, 1 nM rhodamine labeled native RPtag (small)
  Kd: 0.0002 µM and ~0.0002 µM
[2]
  selectivity over non-specific (BSA) interaction: > 50,000 fold
[3]; listed as RPtag (small)
  binding to BSA: no detectable binding
[3]; listed as native RPtag (small)
  binding to BSA: no interaction was detected
[4]
  elution behaviour with 100 mM Tris pH 8.0, 3 M imidazole: diffuse band
RPtag (large) [5]; 1000 nM RPtag(large)
  slope of initial velocity line using S (total): 0.035 min⁻¹
RPtag (large) [5]; 1000 nM RPtag(large), 0.6 to 10 nM RPtag (small)
  rate constant for conversion of S to S* from linear fit of initial rate plot, S (corrected): 0.091 min⁻¹
RPtag (large) [5]; 0.1 mM unlabeled native RPtag small competitor, n=15
  dissociation rate constant from first order rate law fit: 0.012 ± 0.002 min⁻¹
RPtag (large) [5]; LS dissociation, unlabeled competitor peptide, listed as native RPtag (small)
  koff: 0.000152 s⁻¹
RPtag (large) [5]; S* to S reverse rate constant, calculated from Keq and kf, listed as native RPtag (small)
  kr: 0.056 min⁻¹
RPtag (large) [5]; S*-LS transition, calculated from measured koff and Kd
  kon (M^−1 min^−1 ) (×10^7): 4.3 ± 0.1 ×10^7 M^−1 min^−1
RPtag (large) [6]; Gdn-HCl (6M)
  Kd: > 10 µM
RPtag (large) [6]; SDS (2%)
  Kd: > 10 µM
RPtag (large) [6]; imidazole (3M)
  Kd: > 10 µM
RPtag (large) [6]; urea (8M)
  Kd: > 10 µM
